The record followed here is US8889731B2, “Compounds, compositions and methods for repelling blood-feeding arthropods and deterring their landing and feeding” (Contech Enterprises Inc., priority 2007, dated 2014).

For one assay, the system named is Anopheles gambiae. The experiment in a line: Arm-in-cage repellent/deterrent bioassay on exposed human forearm (modified WHO protocol), Anopheles gambiae. The assay is classed as in vivo. As to the method:
(§1) Candidate repellents and deterrents were bioassayed according to a modified protocol from the World Health Organization (1996). At least 1 hour prior to each bioassay, 75 host-seeking non blood-fed, nulliparous, 5- to 8-day-old female Aedes aegypti, Anopheles gambiae or Culex quinquefasciatus were placed into a wood-framed cage (26.5 cm on each side and 42.5 cm high) with a wooden floor, screened mesh sides and top, and a clear acrylic front fitted with a cotton stockinette sleeve (10 cm diameter). The test subject's arm was covered with an elbow-length polyethylene glove with an excised patch (16.6 cm long, 6 cm wide) to expose the ventral forearm of the test subject. Candidate deterrents were formulated in mineral (paraffin) oil and applied to the exposed forearm 5 min prior to inserting the arm into the cage. The inserted arm remained in the cage for 3 min every 30 min. Prior to each 3-min bioassay period, the hand of the untreated arm was inserted into the cage to ascertain that it received 10 bites within 30 sec as an indication of “biting pressure”.
(§2) The bioassay was terminated when the treated arm received ≧2 bites in one 3-min bioassay period or one bite in each of two consecutive bioassay periods. The time elapsed from experiment initiation to first bite was recorded as deterrent failure or complete protection time.
(§3) N,N-diethyl-m-toluamide formulated in ethanol at a corresponding dose served as a positive control, and mineral oil by itself served as a negative control. On each day, only one candidate compound was tested, ensuring that any residual material in the chamber had disappeared before the next bioassay.
To determine the repellence and deterrence of 8-allylsulfanyloctan-1-ol against Anopheles gambiae, a 2%, 5% or a 10% formulation of 8-allylsulfanyloctan-1-ol in mineral oil was applied in Experiments 5-7 at a dose of 1.5 mg per cm^2 to the skin of the test person, and was bioassayed according to the protocol described under EXAMPLE 2. In Experiment 8, mineral oil by itself served as a negative control and was tested at the same dose (1.5 mg per cm^2) as in Experiments 5-7. Each of Experiments 5-8 was replicated 4 times.
To be able to compare the repellence and deterrence caused N,N-diethyl-m-toluamide (DEET), and by 8-allylsulfanyloctan-1-ol, Experiment 13 tested a 2% formulation of N,N-diethyl-m-toluamide in ethanol (the best formulant for this compound) for protection from bites by Anopheles gambiae. A dose of 1.5 mg per cm^2 was applied to the skin of the test person and bioassayed according to the protocol described under EXAMPLE 2.
To compare the repellence and deterrence against Anopheles gambiae caused by 8-allyl-sulfanyloctan-1-ol as a single active ingredient and by 8-allylsulfanyloctan-1-ol in combination with vanillin as a second active ingredient, we tested a 6.7% emulsion of vanillin (Experiment 18), a 6.7-% emulsion of 8-allylsulfanyl-octan-1-ol (Experiment 19) and a 13.4% emulsion of 8-allylsulfanyloctan-1-ol plus vanillin (1:1 ratio) (Experiment 20). 8-Allylsulfanyloctan-1-ol and vanillin were formulated in Emulsion No. 1 (see EXAMPLE 9). In each of Experiments 18-20, test stimuli were applied at a dose of 1.5 mg per cm^2 to the skin of the test person, and were bioassayed according to the protocol described under EXAMPLE 2. In Experiment 21, Emulsion No. 1 served as a positive control and was tested at the same dose (1.5 mg per cm^2) as in experiments 18-20. Each of Experiments 18-21 was replicated three times.

For the next assay, the system named is Culex quinquefasciatus. In words: Arm-in-cage repellent/deterrent bioassay on exposed human forearm (modified WHO protocol), Culex quinquefasciatus. The class given is in vivo. Here is the method: as §1, §2, §3
To determine the repellence and deterrence of 8-allylsulfanyloctan-1-ol against Culex quinquefasciatus, a 2% and 5% or a 10% formulation of 8-allylsulfanyloctan-1-ol in mineral oil was applied in Experiments 9-11 at a dose of 1.5 mg per cm^2 to the skin of the test person, and was bioassayed according to the protocol described under EXAMPLE 2. In Experiment 12, mineral oil by itself served as a negative control and was tested at the same dose (1.5 mg per cm^2) as in Experiments […]. Each of Experiments 9-11 was replicated 4 times.
To compare the repellence and deterrence against Culex quinquefasciatus caused by 8-allylsulfanyloctan-1-ol as a single active ingredient and by 8-allylsulfanyloctan-1-ol in combination with vanillin as a second active ingredient, we tested a 6.7% emulsion of vanillin (Experiment 22), a 6.7% emulsion of 8-allylsulfanyloctan-1-ol (Experiment 23) and a 13.4% emulsion of 8-allylsulfanyloctan-1-ol plus vanillin (1:1 ratio) (Experiment 24). 8-Allylsulfanyloctan-1-ol and vanillin were formulated in Emulsion No. 1 (see EXAMPLE 9). In each of Experiments […], test stimuli were applied at a dose of 1.5 mg per cm^2 to the skin of the test person, and were bioassayed according to the protocol described under EXAMPLE 2. In Experiment 25, Emulsion No. 1 served as a positive control and was tested at the same dose (1.5 mg per cm^2) as in Experiments 22-24. Each of Experiments 22-25 was replicated three times.

As to `C=CCSCCCCCCCCO` [Compound 24, 8-allylsulfanyloctan-1-ol], the “protection from bites, average duration” value in the assay on Anopheles gambiae (2% formulation in mineral oil, 1.5 mg per cm^2, Experiment 5) came to 297 min; in the assay with Anopheles gambiae (5% formulation in mineral oil, 1.5 mg per cm^2, Experiment 6) it was 314 min; with Anopheles gambiae (6.7% single active in Emulsion No. 1 (FIG. 8 legend: 2.0%), 1.5 mg per cm^2, Experiments 18, 19) it was 369 min; with Anopheles gambiae (10% formulation in mineral oil, 1.5 mg per cm^2, Experiment 7) it was 487 min; with Culex quinquefasciatus (2% formulation in mineral oil, 1.5 mg per cm^2, Experiment 9) it was 198 min; in the assay on Culex quinquefasciatus (5% formulation in mineral oil, 1.5 mg per cm^2, Experiment 10), 319 min. The “protection from bites, average duration” value in the assay on Culex quinquefasciatus (6.7% single active in Emulsion No. 1 (FIG. 9 legend: 2.0%), 1.5 mg per cm^2, Experiments 22, 23) turned out to be 242 min; in the assay with Culex quinquefasciatus (10% formulation in mineral oil, 1.5 mg per cm^2, Experiment 11), 495 min. The “protection status when experiment was terminated after eight hours” value with Culex quinquefasciatus (10% formulation in mineral oil, Experiment 11, each of the three replicates) is reported as “complete protection against bites”.
